pEC50: −log10 of the molar value.
Target: recombinant DYRK1A kinase (Homo sapiens (Human), UniProt Q13627)
Test: DYRK1A kinase assay (Ser/Thr 18 peptide Z-lyte FRET assay)
Format: biochemical
Conditions: recombinant DYRK1A 0.25 µg/mL, ATP 15 µM, Ser/Thr peptide 18 4 µM, one hour at room temperature; table head prints EC50, method says IC50
Method: Representative compounds were screened using the assay procedure for DYRK1A kinase activity as described below.
Each compound was dissolved in DMSO as a 10 mM stock and used to prepare compound source plates. Serial dilution (1:3, 11-point dose-response curves from 10 µM to 0.00016 µM) and compound transfer was performed using the ECHO 550 (Labcyte, Sunnyvale, CA) into 1536-well black-walled round bottom plates (Corning).
The DYRK1A kinase assay was run using the Ser/Thr 18 peptide Z-lyte assay kit according to manufacturer’s instructions (Life Technologies- a Division of Thermo-Fisher). This is a non-radioactive assay using fluorescence resonance energy transfer (FRET) between coumarin and fluorescein to detect kinase activity which is represented as a ratio of coumarin emission/fluorescein emission.
Briefly, recombinant DYRK1A kinase, ATP and Ser/Thr peptide 18 were prepared in 1X Kinase buffer to final concentrations of 0.25 µg/mL, 15 µM, and 4 µM respectively. The mixture was allowed to incubate with the representative compounds for one hour at room temperature. All reactions were performed in duplicate. Unphosphorylated (“0% Control”) and phosphorylated (“100% control”) forms of Ser/Thr 18 served as control reactions. Additionally, an 11-point dose-response curve of Staurosporine (1uM top) was run to serve as a positive compound control.
After incubation, Development Reagent A was diluted in Development Buffer then added to the reaction and allowed to further incubate for one hour at room temperature. The plate was read at Ex 400 Em 455 to detect the coumarin signal and Ex 400 Em 520 to measure the signal (EnVision Multilabel Plate Reader, PerkinElmer).
The Emission ratio (Em) was calculated as a ratio of the coumarin (C) emission signal (at 445 nm)/Fluorescein (F) emission signal (at 520 nm). The percent phosphorylation was then calculated using the following formula: [1 — ((Em ratio X F100%)—C100%)/ ((C0%—C100%) + (Em ratio X (F100% - F0%)))]. Dose-response curves were generated, and inhibitory concentration (IC50) values were calculated using non-linear regression curve fit in the Dotmatics’ Studies Software (Bishops Stortford, UK).

| Compound | pEC50 |
| --- | --- |
| 1-(4-((5-(1-(2,2-Difluoroethyl)-2-methyl-1H-imidazo[4,5-b]pyridin-6-yl)pyrrolo[2, 1-f] [1,2,4]triazin-2-yl)amino)piperidin- 1-yl)ethan-1 -one [Compound 1910] | 8.40 |
| CC(C)CNc1ncc2c(-c3ccc4nccn4c3)ccn2n1 [Compound 2, 5-(Imidazo[1,2-a]pyridin-6-yl)-N-isobutylpyrrolo[2,1-f][1,2,4]triazin-2-amine] | 7.39 |
| CC(F)(F)CNc1ncc2c(-c3ccc4nccn4c3)ccn2n1 [Compound 4, N-(2,2-Difluoropropyl)-5-(imidazo [1,2-a]pyridin-6-yl)pyrrolo[2,1-f][1,2,4] triazin-2-amine] | 7.14 |
| COCCNc1ncc2c(-c3ccc4nccn4c3)ccn2n1 [Compound 9, 5-(Imidazo[1,2-a]pyridin-6-yl)-N-(2-methoxyethyl)pyrrolo[2,1-f][1,2,4] triazin-2-amine] | 7.09 |
| CC(C)OCCNc1ncc2c(-c3ccc4nccn4c3)ccn2n1 [Compound 11, 5-(Imidazo[1,2-a]pyridin-6-yl)-N-(2-isopropoxyethyl)pyrrolo[2,1-f][1,2,4] triazin-2-amine] | 6.94 |
| CC1(CNc2ncc3c(-c4ccc5nccn5c4)ccn3n2)CC1 [Compound 12, 5-(Imidazo[1,2-a]pyridin-6-yl)-N-((1-methylcyclopropyl)methyl)pyrrolo[2,1-f][1,2,4]triazin-2-amine] | 7.35 |
| c1cn2cc(-c3ccn4nc(NCC5CC5)ncc34)ccc2n1 [Compound 16, N-(Cyclopropylmethyl)-5-(imidazo[1,2-a]pyridin-6-yl)pyrrolo[2,1-f][1,2,4] triazin-2-amine] | 7.32 |
| c1cn2cc(-c3ccn4nc(NCC5COC5)ncc34)ccc2n1 [Compound 20] | 7.17 |
| c1cn2cc(-c3ccn4nc(NCC5CCCO5)ncc34)ccc2n1 (centres unmarked) [Compound 21, 5-(Imidazo[1,2-a]pyridin-6-yl)-N-((tetrahydrofuran-2-yl)methyl)pyrrolo[2,1-f][1,2,4]triazin-2-amine] | 7.21 |
| CN1CC(Nc2ncc3c(-c4ccc5nccn5c4)ccn3n2)C1 [Compound 64, 5-(Imidazo[1,2-a]pyridin-6-yl)-N-(1-methylazetidin-3-yl)pyrrolo[2,1-f] [1,2,4]triazin-2-amine] | 6.72 |
| CN1CCC(Nc2ncc3c(-c4ccc5nccn5c4)ccn3n2)CC1 [Compound 66, 5-(Imidazo[1,2-a]pyridin-6-yl)-N-(1-methylpiperidin-4-yl)pyrrolo[2,1-f] [1,2,4]triazin-2-amine] | 6.58 |
| c1cn2cc(-c3ccn4nc(NC5CCOCC5)ncc34)ccc2n1 [Compound 67, 5-(Imidazo[1,2-a]pyridin-6-yl)-N-(tetrahydro-2H-pyran-4-yl)pyrrolo[2,1-f] [1,2,4]triazin-2-amine] | 7.40 |
| CC(C)(F)CNc1ncc2c(-c3ccc4ncc(C(=O)N5CCCC5)n4c3)ccn2n1 [Compound 74, (6-(2-((2-Fluoro-2-methylpropyl)amino)pyrrolo[2,1-f][1,2,4]triazin-5-yl)imidazo[1,2-a]pyridin-3-yl)(pyrrolidin-1-yl)methanone] | 5.29 |
| CC(C)(F)CNc1ncc2c(-c3ccc4nccn4n3)ccn2n1 [Compound 145, N-(2-Fluoro-2-methylpropyl)-5-(imidazo [1,2-b]pyridazin-6-yl)pyrrolo[2,1-f] [1,2,4]triazin-2-amine] | 7.35 |
| CC(C)Nc1ncc2c(-c3cnc4nccn4c3)ccn2n1 [Compound 214, 5-(Imidazo[1,2-a]pyrimidin-6-yl)-N-isopropylpyrrolo[2,1-f][1,2,4]triazin-2-amine] | 7.48 |
| CC(C)CNc1ncc2c(-c3cnc4nccn4c3)ccn2n1 [Compound 215, 5-(Imidazo[1,2-a]pyrimidin-6-yl)-N-isobutylpyrrolo[2,1-f][1,2,4]triazin-2-amine] | 8.22 |
| FC(F)(F)CNc1ncc2c(-c3cnc4nccn4c3)ccn2n1 [Compound 218, 5-(Imidazo[1,2-a]pyrimidin-6-yl)-N-(2,2,2-trifluoroethyl)pyrrolo[2,1-f] [1,2,4]triazin-2-amine] | 7.89 |
| C[C@@H](Nc1ncc2c(-c3cnc4nccn4c3)ccn2n1)C(F)(F)F [Compound 219, (R)-5-(Imidazo[1,2-a]pyrimidin-6-yl)-N-(1,1,1-trifluoropropan-2-yl)pyrrolo [2,1-f][1,2,4]triazin-2-amine] | 7.85 |
| FC(F)(F)CCNc1ncc2c(-c3cnc4nccn4c3)ccn2n1 [Compound 220, 5-(Imidazo[1,2-a]pyrimidin-6-yl)-N-(3,3,3-trifluoropropyl)pyrrolo[2,1-f] [1,2,4]triazin-2-amine] | 7.85 |
| CC(C)(CNc1ncc2c(-c3cnc4nccn4c3)ccn2n1)C(F)(F)F [Compound 221, 5-(Imidazo[1,2-a]pyrimidin-6-yl)-N-(3,3,3-trifluoro-2,2-dimethylpropyl) pyrrolo[2,1-f][1,2,4]triazin-2-amine] | 7.54 |
| COC[C@@H](C)Nc1ncc2c(-c3cnc4nccn4c3)ccn2n1 [Compound 223, (R)-5-(Imidazo[1,2-a]pyrimidin-6-yl)-N-(1-methoxypropan-2-yl)pyrrolo[2,1-f][1,2,4]triazin-2-amine] | 7.00 |
| CC1(CNc2ncc3c(-c4cnc5nccn5c4)ccn3n2)CC1 [Compound 225, 5-(Imidazo[1,2-a]pyrimidin-6-yl)-N-((1-methylcyclopropyl)methyl)pyrrolo [2,1-f][1,2,4]triazin-2-amine] | 7.96 |
| FC(F)(F)C1(CNc2ncc3c(-c4cnc5nccn5c4)ccn3n2)CC1 [Compound 226, 5-(Imidazo[1,2-a]pyrimidin-6-yl)-N-((1-(trifluoromethyl)cyclopropyl)methyl)pyrrolo[2,1-f][1,2,4]triazin-2-amine] | 7.96 |
| FC1(CNc2ncc3c(-c4cnc5nccn5c4)ccn3n2)CCC1 [Compound 227, N-((1-Fluorocyclobutyl)methyl)-5-(imidazo[1,2-a]pyrimidin-6-yl)pyrrolo [2,1-f][1,2,4]triazin-2-amine] | 8.40 |
| c1cn2cc(-c3ccn4nc(NCC5CC5)ncc34)cnc2n1 [Compound 229, N-(Cyclopropylmethyl)-5-(imidazo[1,2-a]pyrimidin-6-yl)pyrrolo[2,1-f] [1,2,4]triazin-2-amine] | 8.05 |
| C[C@H](Nc1ncc2c(-c3cnc4nccn4c3)ccn2n1)C1CC1 [Compound 230, (S)-N-(1-Cyclopropylethyl)-5-(imidazo[1,2-a]pyrimidin-6-yl)pyrrolo[2,1-f] [1,2,4]triazin-2-amine] | 7.24 |
| C[C@@H](Nc1ncc2c(-c3cnc4nccn4c3)ccn2n1)C1CC1 [Compound 231, (R)-N-(1-Cyclopropylethyl)-5-(imidazo[1,2-a]pyrimidin-6-yl)pyrrolo[2,1-f] [1,2,4]triazin-2-amine] | 7.55 |
| FC(F)(CNc1ncc2c(-c3cnc4nccn4c3)ccn2n1)C1CC1 [Compound 232, N-(2-Cyclopropyl-2,2-difluoroethyl)-5-(imidazo[1,2-a]pyrimidin-6-yl) pyrrolo[2,1-f][1,2,4]triazin-2-amine] | 8.05 |
| c1cn2cc(-c3ccn4nc(NC5CCC5)ncc34)cnc2n1 [Compound 235, N-Cyclobutyl-5-(imidazo[1,2-a]pyrimidin-6-yl)pyrrolo[2,1-f][1,2,4]triazin-2-amine] | 6.42 |
